Patent US6221864A, “Prophylactic or therapeutic agent for diseases attributable to infection with helicobacters” (priority 1997, dated 2001)
Converted amounts (≈) assume the structure as drawn.

Assays:
[1] = system: H. pylori; test: MIC given in Table 1 beside eradication in H. pylori-infected Mongolian gerbils; format: cell-based; conditions: Helicobacter pylori
Procedure: Clinically isolated strains (18 strains) were cultured using 5% horse serum under microaerophilic conditions at 37° C. for 72 hours and diluted with Brucella broth to give a bacterial solution at about 10^6 cells/ml. The diluted bacterial solution was inoculated with a microplanter on an agar plate containing 2-fold dilution concentration series of test compound and cultured under 8% CO2 at 37° C. for 3 to 4 days. Thereafter, the minimum growth inhibitory concentration (MIC) was measured. MIC50 (minimum concentration to inhibit growth in 50% of the test strains) and MIC90 (minimum concentration to inhibit growth in 90% of the test strains) were calculated from the obtained values. To a male 7-week-old Mongolian gerbil after fasting for about 20 hours, was inoculated orally a culture broth of H. pylori ATCC 43504 Type strain upon 24 hours of culture. After administration of the culture broth, the Mongolian gerbil was fasted and deprived of water for about 4 hours, after which a normal solid feed and drinking water were given to Mongolian gerbils infected with H. pylori. Starting from 6 weeks after infection, the drug was orally administered twice a day for 7 days. […] The medium was incubated under CO2 and the colonies of H. pylori were counted. A case where colonies were not detected was evaluated as the case of bacterial eradication.

[2] = system: H. pylori ATCC 43504 Type strain; test: Bacterial eradication in H. pylori-infected Mongolian gerbils, drug orally twice a day for 7 days; format: in vivo, Mongolian gerbil; conditions: bid, oral
Procedure: To a male 7-week-old Mongolian gerbil after fasting for about 20 hours, was inoculated orally a culture broth of H. pylori ATCC 43504 Type strain upon 24 hours of culture. After administration of the culture broth, the Mongolian gerbil was fasted and deprived of water for about 4 hours, after which a normal solid feed and drinking water were given to Mongolian gerbils infected with H. pylori. Starting from 6 weeks after infection, the drug was orally administered twice a day for 7 days. After completion of the drug administration, Mongolian gerbils were sacrificed at day 3. The stomach was excised and incised along greater curvature, and its content was removed. The stomach was homogenized in 10 ml of phosphate buffer--physiological saline in a homogenizer. The homogenate was appropriately diluted with the same buffer and 0.1 ml of sample was plated onto H. pylori selective medium. The medium was incubated under CO2 and the colonies of H. pylori were counted. A case where colonies were not detected was evaluated as the case of bacterial eradication.

[3] = system: H. pylori clinically isolated strains (18 strains); test: In vitro antibacterial activity against H. pylori clinically isolated strains (agar dilution MIC); format: cell-based; conditions: Helicobacter pylori, 18 clinically isolated strains, agar plate, 8% CO2, 37° C., 3 to 4 days
Procedure: Clinically isolated strains (18 strains) were cultured using 5% horse serum under microaerophilic conditions at 37° C. for 72 hours and diluted with Brucella broth to give a bacterial solution at about 10^6 cells/ml. The diluted bacterial solution was inoculated with a microplanter on an agar plate containing 2-fold dilution concentration series of test compound and cultured under 8% CO2 at 37° C. for 3 to 4 days. Thereafter, the minimum growth inhibitory concentration (MIC) was measured. MIC50 (minimum concentration to inhibit growth in 50% of the test strains) and MIC90 (minimum concentration to inhibit growth in 90% of the test strains) were calculated from the obtained values.

[4] = system: H. pylori ATCC 43504 Type strain; test: Bacterial eradication in H. pylori-infected Mongolian gerbils, alone or combined with famotidine, twice a day for 3 days; format: in vivo, Mongolian gerbil; conditions: bid
Procedure: To a male 7-week-old Mongolian gerbil after fasting for about 20 hours, was inoculated orally a culture broth of H. pylori ATCC 43504 Type strain upon 24 hours of culture. After administration of the culture broth, the Mongolian gerbil was fasted and deprived of water for about 4 hours, after which a normal solid feed and drinking water were given to Mongolian gerbils infected with H. pylori. Starting from 6 weeks after infection, the compound of the present invention and famotidine which is a histamine H2 antagonist were administered alone or in combination twice a day for 3 days. The compound of the present invention was administered orally and famotidine was subcutaneously administered immediately before administration of the compound of the present invention. After completion of the drug administration, Mongolian gerbils were sacrificed at day 3. The stomach was excised and incised along greater curvature and its content was removed. The stomach was homogenized in 10 ml of phosphate buffer--physiological saline. […] The medium was incubated under CO2 and the colonies of H. pylori were counted. A case where colonies were not detected was evaluated as the case of bacterial eradication. As a control, phosphate buffer--physiological saline was used.

SMILES	MIC [1] [µg/mL]	Eradication rate ([2]; 3.0 mg/kg) [%]	Eradication rate ([2]; 10.0 mg/kg) [%]	MIC50 ([3]; read-out: MIC50 (minimum concentration to inhibit growth in 50% of the test strains)) [µg/mL]	MIC90 ([3]; read-out: MIC90 (minimum concentration to inhibit growth in 90% of the test strains)) [µg/mL]	Eradication rate ([2]; 0.3 mg/kg) [%]	Eradication rate ([2]; 1.0 mg/kg) [%]	bacterial eradication of H. pylori (in words) [2]	visual and histopathological repair of inflammatory state [2]	Eradication rate ([4]; 0.3 mg/kg, oral) [%]	Eradication rate ([4]; 1.0 mg/kg, oral) [%]	Eradication rate ([4]; 3.0 mg/kg, oral) [%]	visual and histopathological repair of inflammatory state [4]	bacterial eradication effect when concurrently administered with famotidine (in words) ([4]; with famotidine subcutaneous)	bacterial eradication effect by single administration (in words) ([4]; without famotidine)	Eradication rate ([4]; 100 mg/kg, subcutaneous) [%]
CC1(C)S[C@@H]2[C@H](NC(=O)[C@H](N)c3ccc(O)cc3)C(=O)N2[C@H]1C(=O)O [amoxicillin, reference compound]	0.025 (≈ 0.0684 µM)	0	100	–	–	–	–	–	–	–	–	–	–	–	–	–
COc1c(N2CCO[C@@H](CN(C)C)C2)c(F)cc2c(=O)c(C(=O)O)cn(C3CC3)c12 [Y-34867, (S)-1-cyclopropyl-1,4-dihydro-7-[2-(N,N-dimethylaminomethyl)morpholino]-6-fluoro-8-methoxy-4-oxoquinoline-3-carboxylic acid]	0.025 (≈ 0.0596 µM)	100	–	0.025 (≈ 0.0596 µM)	0.05 (≈ 0.119 µM)	0	80	evident bacterial eradication of H. pylori	promoted	0	60	100	promoted	the effect is enforced	superior bacterial eradication effect	–
NC(N)=Nc1nc(CSCCC(N)=NS(N)(=O)=O)cs1 [famotidine, reference compound]	–	–	–	–	–	–	–	–	–	–	–	–	–	–	–	0
